Test results: PubChem BioAssay (NCI)
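Each compound was tested at five concentrations against cells in 96-well plates for 48 hours. Abbreviation: GI50, concentration required for 50% inhibition of growth. TGI: concentration producing complete growth inhibition.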

Columns and labels:
Assay in all cases: NCI tumour cell line growth inhibition, 48 h
[1] = tested on: SK-MEL-28 melanoma
[2] = tested on: SR leukemia
[3] = tested on: SK-MEL-5 melanoma
[4] = tested on: K-562 leukemia
[5] = tested on: RPMI-8226 leukemia
[6] = tested on: SN12C renal
[7] = tested on: HCT-15 colon
[8] = tested on: NCI/ADR-RES ovarian
[9] = tested on: 786-0 renal
[10] = tested on: NCI-H522 lung
[11] = tested on: DU-145 prostate
[12] = tested on: M14 melanoma
[13] = tested on: HCT-116 colon
[14] = tested on: SW-620 colon
[15] = tested on: IGROV1 ovarian
[16] = tested on: HT29 colon
[17] = tested on: OVCAR-3 ovarian
[18] = tested on: CAKI-1 renal
[19] = tested on: LOX IMVI melanoma
[20] = tested on: HS 578T breast
[21] = tested on: SK-OV-3 ovarian
[22] = tested on: OVCAR-5 ovarian
[23] = tested on: BT-549 breast
[24] = tested on: SF-268 CNS
[25] = tested on: NCI-H226 lung
[26] = tested on: MDA-MB-231 breast
[27] = tested on: HL-60(TB) leukemia
[28] = tested on: TK-10 renal
[29] = tested on: HOP-62 NSCLC
[30] = tested on: PC-3 prostate
[31] = tested on: MOLT-4 leukemia
[32] = tested on: A549 NSCLC
[33] = tested on: ACHN renal
[34] = tested on: MCF7 breast
[35] = tested on: HOP-92 NSCLC
[36] = tested on: SNB-19 CNS
[37] = tested on: MALME-3M melanoma
[38] = tested on: A498 renal
[39] = tested on: MDA-MB-435
[40] = tested on: KM12 colon
[41] = tested on: SNB-75 CNS
[42] = tested on: NCI-H460 lung
[43] = tested on: U251 CNS
[44] = tested on: CCRF-CEM leukemia
[45] = tested on: UACC-257 melanoma
[46] = tested on: UACC-62 melanoma
[47] = tested on: OVCAR-8 ovarian
[48] = tested on: NCI-H23 lung
[49] = tested on: T-47D breast
[50] = tested on: SK-MEL-2 melanoma
[51] = tested on: SF-539 CNS
[52] = tested on: EKVX NSCLC
[53] = tested on: SF-295 CNS
[54] = tested on: OVCAR-4 ovarian
[55] = tested on: RXF 393 renal
[56] = tested on: COLO 205 colon
[57] = tested on: HCC-2998 colon

Question: With `CC1=C(CN(O)C(N)=O)C2=C(C)C3(CC3)[C@@](C)(O)C(=O)C2=C1` as the compound, how does the GI50 [1] read?
Answer: The GI50 was 0.229 µM.

Question: And the TGI [1]?
Answer: The TGI was 0.505 µM.

Question: What about the GI50 [2] of the same compound?
Answer: Its GI50 is 7.6 µM.

Question: What about the TGI [2] of the same compound?
Answer: The TGI was over 80.9 µM.

Question: What about the GI50 [3] of the same compound?
Answer: The GI50 was 0.195 µM.

Question: What about the TGI [3] of the same compound?
Answer: The TGI was 0.409 µM.

Question: What about the GI50 [4] of the same compound?
Answer: The GI50 was 16.3 µM.

Question: And the TGI [4]?
Answer: The TGI was over 100 µM.

Question: And the GI50 [5]?
Answer: The GI50 was 7.19 µM.

Question: What about the TGI [5] of the same compound?
Answer: Its TGI is over 100 µM.

Question: What about the GI50 [6] of the same compound?
Answer: Its GI50 is 0.373 µM.

Question: And the TGI [6]?
Answer: Its TGI is 2.67 µM.

Question: And the GI50 [7]?
Answer: Its GI50 is 0.267 µM.

Question: What about the TGI [7] of the same compound?
Answer: Its TGI is 0.883 µM.

Question: What about the GI50 [8] of the same compound?
Answer: The GI50 was 0.381 µM.

Question: What about the TGI [8] of the same compound?
Answer: Its TGI is 3.11 µM.

Question: And the GI50 [9]?
Answer: The GI50 was 0.343 µM.

Question: What about the GI50 [10] of the same compound?
Answer: The GI50 was 1.23 µM.

Question: What about the TGI [10] of the same compound?
Answer: The TGI was 4.65 µM.

Question: And the GI50 [11]?
Answer: The GI50 was 0.0439 µM.

Question: And the TGI [11]?
Answer: The TGI was 1.11 µM.

Question: What about the GI50 [12] of the same compound?
Answer: The GI50 was 0.269 µM.

Question: And the TGI [12]?
Answer: Its TGI is 0.699 µM.

Question: What about the GI50 [13] of the same compound?
Answer: The GI50 was 0.267 µM.

Question: What about the GI50 [14] of the same compound?
Answer: Its GI50 is 10.8 µM.

Question: What about the TGI [14] of the same compound?
Answer: Its TGI is over 100 µM.

Question: And the GI50 [15]?
Answer: The GI50 was 0.208 µM.

Question: And the TGI [15]?
Answer: The TGI was 0.94 µM.

Question: And the GI50 [16]?
Answer: The GI50 was 0.316 µM.

Question: And the TGI [16]?
Answer: Its TGI is over 34.5 µM.

Question: What about the GI50 [17] of the same compound?
Answer: Its GI50 is 0.26 µM.

Question: And the TGI [17]?
Answer: Its TGI is 0.769 µM.

Question: What about the GI50 [18] of the same compound?
Answer: Its GI50 is 0.253 µM.

Question: What about the TGI [18] of the same compound?
Answer: The TGI was 1.35 µM.

Question: What about the GI50 [19] of the same compound?
Answer: The GI50 was 0.402 µM.

Question: What about the TGI [19] of the same compound?
Answer: Its TGI is 2.04 µM.

Question: What about the GI50 [20] of the same compound?
Answer: The GI50 was 0.503 µM.

Question: What about the TGI [20] of the same compound?
Answer: The TGI was 3 µM.

Question: And the GI50 [21]?
Answer: Its GI50 is 0.305 µM.

Question: And the TGI [21]?
Answer: The TGI was 1.09 µM.

Question: What about the GI50 [22] of the same compound?
Answer: The GI50 was 0.367 µM.

Question: And the TGI [22]?
Answer: The TGI was 2.27 µM.

Question: And the GI50 [23]?
Answer: Its GI50 is 0.367 µM.

Question: What about the TGI [23] of the same compound?
Answer: The TGI was 1.59 µM.

Question: What about the GI50 [24] of the same compound?
Answer: Its GI50 is 0.236 µM.

Question: What about the TGI [24] of the same compound?
Answer: Its TGI is 1.56 µM.

Question: What about the GI50 [25] of the same compound?
Answer: Its GI50 is 0.235 µM.

Question: And the TGI [25]?
Answer: Its TGI is 0.644 µM.

Question: And the GI50 [26]?
Answer: Its GI50 is 0.324 µM.

Question: What about the TGI [26] of the same compound?
Answer: The TGI was 1.78 µM.

Question: And the GI50 [27]?
Answer: Its GI50 is 0.279 µM.

Question: What about the TGI [27] of the same compound?
Answer: The TGI was 3.55 µM.

Question: And the GI50 [28]?
Answer: The GI50 was 0.308 µM.

Question: What about the TGI [28] of the same compound?
Answer: Its TGI is 0.909 µM.

Question: And the GI50 [29]?
Answer: The GI50 was 0.178 µM.

Question: And the TGI [29]?
Answer: The TGI was 0.996 µM.

Question: And the GI50 [30]?
Answer: Its GI50 is 0.398 µM.

Question: What about the TGI [30] of the same compound?
Answer: Its TGI is 5.24 µM.

Question: And the GI50 [31]?
Answer: Its GI50 is 21.3 µM.

Question: And the TGI [31]?
Answer: The TGI was over 100 µM.

Question: What about the GI50 [32] of the same compound?
Answer: Its GI50 is 0.118 µM.

Question: And the TGI [32]?
Answer: Its TGI is 1.22 µM.

Question: What about the GI50 [33] of the same compound?
Answer: The GI50 was 0.236 µM.

Question: And the TGI [33]?
Answer: Its TGI is 0.572 µM.

Question: What about the GI50 [34] of the same compound?
Answer: The GI50 was 0.921 µM.

Question: What about the TGI [34] of the same compound?
Answer: The TGI was 10.1 µM.

Question: What about the GI50 [35] of the same compound?
Answer: Its GI50 is 0.208 µM.

Question: What about the TGI [35] of the same compound?
Answer: The TGI was 0.618 µM.

Question: And the GI50 [36]?
Answer: The GI50 was 0.469 µM.

Question: And the TGI [36]?
Answer: The TGI was 6.18 µM.

Question: What about the GI50 [37] of the same compound?
Answer: Its GI50 is 0.205 µM.

Question: And the TGI [37]?
Answer: The TGI was 0.424 µM.

Question: What about the GI50 [38] of the same compound?
Answer: Its GI50 is 0.175 µM.

Question: What about the TGI [38] of the same compound?
Answer: Its TGI is 0.359 µM.

Question: And the GI50 [39]?
Answer: The GI50 was 0.662 µM.

Question: And the TGI [39]?
Answer: The TGI was 2.37 µM.

Question: What about the GI50 [40] of the same compound?
Answer: The GI50 was 0.53 µM.

Question: What about the TGI [40] of the same compound?
Answer: The TGI was 5.41 µM.

Question: What about the GI50 [41] of the same compound?
Answer: Its GI50 is 0.215 µM.

Question: And the TGI [41]?
Answer: Its TGI is 0.464 µM.

Question: And the GI50 [42]?
Answer: The GI50 was 0.0452 µM.

Question: What about the TGI [42] of the same compound?
Answer: The TGI was 0.909 µM.

Question: What about the GI50 [43] of the same compound?
Answer: Its GI50 is 0.337 µM.

Question: And the GI50 [44]?
Answer: Its GI50 is 29.6 µM.

Question: What about the TGI [44] of the same compound?
Answer: Its TGI is over 100 µM.

Question: And the GI50 [45]?
Answer: The GI50 was 0.28 µM.

Question: What about the TGI [45] of the same compound?
Answer: The TGI was 0.765 µM.

Question: And the GI50 [46]?
Answer: The GI50 was 0.224 µM.

Question: What about the TGI [46] of the same compound?
Answer: The TGI was 0.562 µM.

Question: And the GI50 [47]?
Answer: Its GI50 is 0.337 µM.

Question: And the TGI [47]?
Answer: The TGI was 6.68 µM.

Question: And the GI50 [48]?
Answer: Its GI50 is 0.109 µM.

Question: And the TGI [48]?
Answer: The TGI was 0.544 µM.

Question: And the GI50 [49]?
Answer: Its GI50 is 0.214 µM.

Question: And the TGI [49]?
Answer: Its TGI is 1.72 µM.

Question: What about the GI50 [50] of the same compound?
Answer: Its GI50 is 0.356 µM.

Question: And the TGI [50]?
Answer: The TGI was 1.21 µM.

Question: And the GI50 [51]?
Answer: The GI50 was 0.216 µM.

Question: And the TGI [51]?
Answer: The TGI was 0.556 µM.

Question: And the GI50 [52]?
Answer: The GI50 was 0.346 µM.

Question: And the TGI [52]?
Answer: Its TGI is 1.53 µM.

Question: And the GI50 [53]?
Answer: Its GI50 is 0.252 µM.

Question: What about the TGI [53] of the same compound?
Answer: Its TGI is 1.16 µM.

Question: And the GI50 [54]?
Answer: Its GI50 is 0.285 µM.

Question: What about the TGI [54] of the same compound?
Answer: The TGI was 1.55 µM.

Question: What about the GI50 [55] of the same compound?
Answer: The GI50 was 0.141 µM.

Question: And the TGI [55]?
Answer: The TGI was 0.29 µM.

Question: And the GI50 [56]?
Answer: Its GI50 is 0.185 µM.

Question: What about the TGI [56] of the same compound?
Answer: Its TGI is 0.517 µM.

Question: And the GI50 [57]?
Answer: The GI50 was 0.174 µM.

Question: What about the TGI [57] of the same compound?
Answer: The TGI was 0.414 µM.
